For 27 molecules, IC50 results are on record in patent US10590078B2, “Sodium channel blockers” (Daewoong Pharmaceutical Co., Ltd., priority 2015, dated 2020).

The target of this assay is human sodium ion channel 1.7 (hNav1.7) (Homo sapiens, UniProt Q15858). Briefly: Blocking effect against sodium ion channel Nav1.7, IonFlux16 auto patch clamp in hNav1.7 HEK293 cells. The format is cell-based. To be noted: hNav1.7 HEK293 cells; inhibition of peak current after 50 seconds treatment; eight concentrations; read-out: IC50. In general terms: Patch clamp records ionic current or voltage across a cell membrane.

pIC50: −log10 of the molar value.

Chain of human sodium ion channel 1.7 (hNav1.7) (Q15858 whole entry): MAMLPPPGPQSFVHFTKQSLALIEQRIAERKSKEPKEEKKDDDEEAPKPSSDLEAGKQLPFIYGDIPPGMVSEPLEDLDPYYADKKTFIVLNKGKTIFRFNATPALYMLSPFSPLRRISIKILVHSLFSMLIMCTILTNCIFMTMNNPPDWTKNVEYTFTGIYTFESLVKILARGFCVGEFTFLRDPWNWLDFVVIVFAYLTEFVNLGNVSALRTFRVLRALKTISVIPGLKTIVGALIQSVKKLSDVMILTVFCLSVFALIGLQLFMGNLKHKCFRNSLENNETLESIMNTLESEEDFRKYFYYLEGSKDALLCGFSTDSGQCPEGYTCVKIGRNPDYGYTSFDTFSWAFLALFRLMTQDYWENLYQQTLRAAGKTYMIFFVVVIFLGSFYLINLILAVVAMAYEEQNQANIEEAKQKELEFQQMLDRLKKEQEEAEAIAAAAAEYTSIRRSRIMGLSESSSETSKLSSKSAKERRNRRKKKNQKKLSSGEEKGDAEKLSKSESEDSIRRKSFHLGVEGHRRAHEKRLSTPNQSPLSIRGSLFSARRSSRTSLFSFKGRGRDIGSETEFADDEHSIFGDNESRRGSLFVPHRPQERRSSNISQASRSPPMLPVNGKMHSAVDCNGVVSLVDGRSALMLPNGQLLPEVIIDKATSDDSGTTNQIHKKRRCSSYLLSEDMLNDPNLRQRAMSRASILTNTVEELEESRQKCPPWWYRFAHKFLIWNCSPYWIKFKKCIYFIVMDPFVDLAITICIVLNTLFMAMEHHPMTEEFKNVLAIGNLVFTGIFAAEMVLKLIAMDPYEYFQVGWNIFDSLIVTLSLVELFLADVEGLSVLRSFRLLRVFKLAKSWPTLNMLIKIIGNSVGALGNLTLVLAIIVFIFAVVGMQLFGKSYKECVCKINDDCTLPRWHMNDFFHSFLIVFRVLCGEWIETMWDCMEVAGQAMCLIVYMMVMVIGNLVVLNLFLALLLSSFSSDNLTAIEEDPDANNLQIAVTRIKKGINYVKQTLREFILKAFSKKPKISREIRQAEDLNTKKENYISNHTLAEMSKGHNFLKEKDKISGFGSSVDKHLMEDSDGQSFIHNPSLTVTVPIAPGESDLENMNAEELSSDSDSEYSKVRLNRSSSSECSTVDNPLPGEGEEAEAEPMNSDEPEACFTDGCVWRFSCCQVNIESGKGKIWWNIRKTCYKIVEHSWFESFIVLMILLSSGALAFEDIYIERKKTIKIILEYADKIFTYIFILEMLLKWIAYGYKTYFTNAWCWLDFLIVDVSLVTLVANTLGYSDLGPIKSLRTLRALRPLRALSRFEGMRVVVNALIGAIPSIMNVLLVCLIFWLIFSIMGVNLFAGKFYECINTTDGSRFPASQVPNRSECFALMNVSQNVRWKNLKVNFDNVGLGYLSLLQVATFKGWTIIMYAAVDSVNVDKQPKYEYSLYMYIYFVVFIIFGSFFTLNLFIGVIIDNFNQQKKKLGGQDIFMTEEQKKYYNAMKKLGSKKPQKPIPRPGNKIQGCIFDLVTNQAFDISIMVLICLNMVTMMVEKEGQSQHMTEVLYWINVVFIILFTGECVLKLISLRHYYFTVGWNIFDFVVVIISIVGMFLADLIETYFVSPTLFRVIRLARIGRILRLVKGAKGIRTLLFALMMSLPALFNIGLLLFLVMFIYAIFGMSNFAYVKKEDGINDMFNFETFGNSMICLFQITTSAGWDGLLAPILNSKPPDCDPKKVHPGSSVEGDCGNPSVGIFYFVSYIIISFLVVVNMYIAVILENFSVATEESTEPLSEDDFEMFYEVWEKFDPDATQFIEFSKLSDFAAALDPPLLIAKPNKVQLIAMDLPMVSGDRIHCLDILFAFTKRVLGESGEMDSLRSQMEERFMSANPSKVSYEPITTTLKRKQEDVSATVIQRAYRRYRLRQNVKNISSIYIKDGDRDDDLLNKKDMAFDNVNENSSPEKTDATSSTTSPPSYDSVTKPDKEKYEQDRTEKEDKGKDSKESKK

For the molecule `CS(=O)(=O)NC(=O)c1cc(Cl)c(-n2cc(-c3cccc(Cl)c3)c3cccnc32)cc1F` [Example 221, 5-chloro-4-(3-(3-chlorophenyl)-1H-pyrrolo[2,3-b]pyridin-1-yl)-2-fluoro-N-(methylsulfonyl)benzamide], the pIC50 (commonly the negative decadic logarithm of the IC50, by convention in mol/L) is 6.01.

In the case of `CS(=O)(=O)NC(=O)c1cc(Cl)c(-n2nc(Cl)c3cc(-c4ccccc4F)ccc32)cc1F` [Example 234, 5-chloro-4-(3-chloro-5-(2-fluorophenyl)-1H-indazol-1-yl)-2-fluoro-N-(methylsulfonyl)benzamide], the negative-log IC50 (pIC50) is 6.95.

Regarding `CS(=O)(=O)NC(=O)c1ccc(-n2nc(-c3cccc(C#N)c3)c3ccccc32)c(C#N)c1` [Example 183, 3-cyano-4-(3-(3-cyanophenyl)-1H-indazol-1-yl)-N-(methylsulfonyl)benzamide], the negative logarithm of the IC50 (pIC50) is less than 5.00.

Consider `CC(=O)NC(=O)c1cc(Cl)c(-n2nc(-c3ccc(Cl)cc3F)c3cc(Cl)ccc32)cc1F` [Example 293, N-acetyl-5-chloro-4-(5-chloro-3-(4-chloro-2-fluorophenyl)-1H-indazol-1-yl)-2-fluorobenzamide], for which the pIC50 was less than 5.00.

Regarding `CS(=O)(=O)NC(=O)c1cc(Cl)c(-n2nc(-c3ccc(C(F)(F)F)cc3)c3ccccc32)cc1F` [Example 178, 5-chloro-2-fluoro-N-(methylsulfonyl)-4-(3-(4-(trifluoromethyl)phenyl)-1H-indazol-1-yl)benzamide], the pIC50 was 6.48.

With `CS(=O)(=O)NC(=O)c1ccc(-n2nc(-c3ccc(F)cc3)c3cc(Cl)ccc32)c(F)c1` [Example 123, 4-(5-chloro-3-(4-fluorophenyl)-1H-indazol-1-yl)-3-fluoro-N-(methylsulfonyl)benzamide], the pIC50 is 6.46.

`CS(=O)(=O)NC(=O)c1cc(Cl)c(-n2nc(-c3ccc(F)c(F)c3)c3cc(Cl)ccc32)cc1F` [Example 75, 5-chloro-4-(5-chloro-3-(3,4-difluorophenyl)-1H-indazol-1-yl)-2-fluoro-N-(methylsulfonyl)benzamide]: the pIC50 was 6.74.

For `CS(=O)(=O)NC(=O)c1cc(Cl)c(-n2cc(Cl)c3cc(OCc4ccccc4)ccc32)cc1F` [Example 269, 4-(5-(benzyloxy)-3-chloro-1H-indol-1-yl)-5-chloro-2-fluoro-N-(methylsulfonyl)benzamide], the pIC50 was 6.85.

For `CS(=O)(=O)NC(=O)c1cc(F)c(-n2nc(-c3cccc(C(F)(F)F)c3)c3cc(Cl)ccc32)cc1Cl` [Example 110, 2-chloro-4-(5-chloro-3-(3-(trifluoromethyl)phenyl)-1H-indazol-1-yl)-5-fluoro-N-(methylsulfonyl)benzamide], the pIC50 was 6.57.

On to `CS(=O)(=O)NC(=O)c1cc(Cl)c(-n2cc(-c3ccc(Cl)cc3)c3cc(F)cnc32)cc1F` [Example 204, 5-chloro-4-(3-(4-chlorophenyl)-5-fluoro-1H-pyrrolo[2,3-b]pyridin-1-yl)-2-fluoro-N-(methylsulfonyl)benzamide], for which the pIC50 is 7.00.

With `CS(=O)(=O)NC(=O)c1cc(Cl)c(-n2nc(-c3cc(F)cc(Cl)c3)c3cc(Cl)ccc32)cc1F` [Example 73, 5-chloro-4-(5-chloro-3-(3-chloro-5-fluorophenyl)-1H-indazol-1-yl)-2-fluoro-N-(methylsulfonyl)benzamide], the negative logarithm of the IC50 (pIC50) is 7.52.

Consider `CS(=O)(=O)NC(=O)c1ccc(-n2nc(-c3cccc(C#N)c3)c3cc(Cl)ccc32)c(F)c1` [Example 119, 4-(5-chloro-3-(3-cyanophenyl)-1H-indazol-1-yl)-3-fluoro-N-(methylsulfonyl)benzamide], for which the pIC50 was 5.75.

For the molecule `CS(=O)(=O)NC(=O)c1cc(Cl)c(-n2cc(Cl)c3cc(-c4cccc(F)c4)cnc32)cc1F` [Example 262, 5-chloro-4-(3-chloro-5-(3-fluorophenyl)-1H-pyrrolo[2,3-b]pyridin-1-yl)-2-fluoro-N-(methylsulfonyl)benzamide], the pIC50 was 6.68.

As for `COc1ccc(-c2nn(-c3ccc(C(=O)NS(C)(=O)=O)cc3C#N)c3ccc(Cl)cc23)cc1` [Example 93, 4-(5-chloro-3-(4-methoxyphenyl)-1H-indazol-1-yl)-3-cyano-N-(methylsulfonyl)benzamide], the pIC50 was 6.65.

With `CS(=O)(=O)NC(=O)c1cc(Cl)c(-n2nc(C#N)c3cc(Br)ccc32)cc1F` [Example 22, 4-(5-bromo-3-cyano-1H-indazol-1-yl)-5-chloro-2-fluoro-N-(methylsulfonyl)benzamide], the negative-log IC50 (pIC50) was 6.02.

For `CS(=O)(=O)NC(=O)c1cc(F)c(-n2nc(-c3cccc(C#N)c3)c3cc(Cl)ccc32)cc1Cl` [Example 109, 2-chloro-4-(5-chloro-3-(3-cyanophenyl)-1H-indazol-1-yl)-5-fluoro-N-(methylsulfonyl)benzamide], the negative-log IC50 (pIC50) is 6.35.

`CS(=O)(=O)NC(=O)c1ccc(-n2nc(-c3ccc(F)cc3F)c3cc(Cl)ccc32)c(C#N)c1` [Example 105, 4-(5-chloro-3-(2,4-difluorophenyl)-1H-indazol-1-yl)-3-cyano-N-(methylsulfonyl)benzamide]: the pIC50 is 6.02.

`CS(=O)(=O)NC(=O)c1cc(Cl)c(-n2nc(-c3ccc(Cl)c(F)c3)c3cc(F)ccc32)cc1F` [Example 164, 5-chloro-4-(3-(4-chloro-3-fluorophenyl)-5-fluoro-1H-indazol-1-yl)-2-fluoro-N-(methylsulfonyl)benzamide]: the pIC50 is 6.66.

As to `CS(=O)(=O)NC(=O)c1cc(Cl)c(-n2nc(-c3ccnc(F)c3)c3cc(Cl)ccc32)cc1F` [Example 68, 5-chloro-4-(5-chloro-3-(2-fluoropyridin-4-yl)-1H-indazol-1-yl)-2-fluoro-N-(methylsulfonyl)benzamide], the negative logarithm of the IC50 (pIC50) was 6.23.

With `CS(=O)(=O)NC(=O)c1ccc(-n2nc(-c3cccc(C(F)(F)F)c3)c3cc(Cl)ccc32)c(C#N)c1` [Example 98, 4-(5-chloro-3-(3-(trifluoromethyl)phenyl)-1H-indazol-1-yl)-3-cyano-N-(methylsulfonyl)benzamide], the pIC50 was 6.05.

In the case of `CS(=O)(=O)NC(=O)c1cc(Cl)c(-n2cc(-c3cccc(Cl)c3)c3cc(F)cnc32)cc1F` [Example 208, 5-chloro-4-(3-(3-chlorophenyl)-5-fluoro-1H-pyrrolo[2,3-b]pyridin-1-yl)-2-fluoro-N-(methylsulfonyl)benzamide], the pIC50 is 7.30.

In the case of `CS(=O)(=O)NC(=O)c1ccc(-n2nc(-c3cncc(Cl)c3)c3cc(Cl)ccc32)c(C#N)c1` [Example 104, 4-(5-chloro-3-(5-chloropyridin-3-yl)-1H-indazol-1-yl)-3-cyano-N-(methylsulfonyl)benzamide], the negative logarithm of the IC50 (pIC50) was less than 5.00.

As to `CS(=O)(=O)NC(=O)c1cc(Cl)c(-n2nc(Cl)c3cc(Cl)cnc32)cc1F` [Example 3, 5-chloro-4-(3,5-dichloro-1H-pyrazolo[3,4-b]pyridin-1-yl)-2-fluoro-N-(methylsulfonyl)benzamide], the pIC50 is 5.95.

In the case of `CS(=O)(=O)NC(=O)c1cc(Cl)c(-n2nc(-c3ccccc3C(F)(F)F)c3cc(Cl)ccc32)cc1F` [Example 63, 5-chloro-4-(5-chloro-3-(2-(trifluoromethyl)phenyl)-1H-indazol-1-yl)-2-fluoro-N-(methylsulfonyl)benzamide], the negative logarithm of the IC50 (pIC50) is 7.39.

For the molecule `CC(C)COc1ccc2c(c1)c(Cl)nn2-c1cc(F)c(C(=O)NS(C)(=O)=O)cc1Cl` [Example 42, 5-chloro-4-(3-chloro-5-isobutoxy-1H-indazol-1-yl)-2-fluoro-N-(methylsulfonyl)benzamide], the negative logarithm of the IC50 (pIC50) was 6.74.

Consider `CS(=O)(=O)NC(=O)c1cc(Cl)c(-n2cc(-c3cccc(Cl)c3F)c3cccnc32)cc1F` [Example 222, 5-chloro-4-(3-(3-chloro-2-fluorophenyl)-1H-pyrrolo[2,3-b]pyridin-1-yl)-2-fluoro-N-(methylsulfonyl)benzamide], for which the negative-log IC50 (pIC50) was 6.39.

Turning to `CS(=O)(=O)NC(=O)c1cc(Cl)c(-n2cc(C(=O)O)c3cc(Cl)ccc32)cc1F` [Example 265, 5-chloro-1-(2-chloro-5-fluoro-4-((methylsulfonyl)carbamoyl)phenyl)-1H-indole-3-carboxylic acid], the negative-log IC50 (pIC50) was 6.00 to 6.52.
